Source: the supplement of paper PMC10307832

Experiments:
Experiment in all cases: relative viability (nuclei count vs DMSO), 5 days (fraction); higher = more cells survive
TGX 221 + Alpelisib = compound: CC1=CN2C(=O)C=C(N=C2C(=C1)C(C)NC3=CC=CC=C3)N4CCOCC4 [TGX 221] + Cc1nc(NC(=O)N2CCC[C@H]2C(N)=O)sc1-c1ccnc(C(C)(C)C(F)(F)F)c1 [Alpelisib] (partner 2 µM)
Summary of the method: (§1)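 Lung cancer cell lines in 1536-well plates were dosed by pin tool the day after seeding, either with one drug alone or with a fixed anchor-drug dose plus five library-drug doses (not always all listed) in √10 steps. After 5 days, cells were fixed and their nuclei stained in one step (final 0.05% Triton X-100, 1% formaldehyde, 1 ug/ml Hoechst), then counted on 4× images. Relative viability is the nuclei count in treated wells divided by that in vehicle wells. Values are medians of duplicate plates.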

[1] = compound: C1=CC=C(C(=C1)C2=CC=C(C=C2)C3=CSC4=C3C(=C(C(=O)N4)C#N)O)O + O=C(CCCCCCC(=O)Nc1ccccc1)NO [Vorinostat] (partner 1 µM)
Summary of the method: as §1

[2] = compound: C1=CC=C(C(=C1)C2=CC=C(C=C2)C3=CSC4=C3C(=C(C(=O)N4)C#N)O)O + NC(=O)Nc1cc(-c2cccc(F)c2)sc1C(=O)N[C@H]1CCCNC1 [AZD7762] (partner 0.2 µM)
Summary of the method: as §1

TGX 221 + Bortezomib = compound: CC1=CN2C(=O)C=C(N=C2C(=C1)C(C)NC3=CC=CC=C3)N4CCOCC4 [TGX 221] + CC(C)C[C@H](NC(=O)[C@H](Cc1ccccc1)NC(=O)c1cnccn1)B(O)O [Bortezomib] (partner 0.002 µM)
Summary of the method: as §1

## LOU-NH91
TGX 221 + Alpelisib; first compound 0.08 µM
  relative viability: 0.69
TGX 221 + Alpelisib; first compound 0.253 µM
  relative viability: 0.706
TGX 221 + Alpelisib; first compound 0.8 µM
  relative viability: 0.682
TGX 221 + Alpelisib; first compound 2.53 µM
  relative viability: 0.697
TGX 221 + Alpelisib; first compound 8 µM
  relative viability: 0.575
[1]; first compound 0.08 µM
  relative viability: 0.892
[1]; first compound 0.253 µM
  relative viability: 0.926
[1]; first compound 0.8 µM
  relative viability: 0.888
[1]; first compound 2.53 µM
  relative viability: 0.886
[1]; first compound 8 µM
  relative viability: 0.848
[2]; first compound 0.08 µM
  relative viability: 0.79
[2]; first compound 0.253 µM
  relative viability: 0.804
[2]; first compound 0.8 µM
  relative viability: 0.745
[2]; first compound 2.53 µM
  relative viability: 0.733
[2]; first compound 8 µM
  relative viability: 0.701
TGX 221 + Bortezomib; first compound 0.08 µM
  relative viability: 0.492
TGX 221 + Bortezomib; first compound 0.253 µM
  relative viability: 0.52
TGX 221 + Bortezomib; first compound 0.8 µM
  relative viability: 0.514
TGX 221 + Bortezomib; first compound 2.53 µM
  relative viability: 0.381
TGX 221 + Bortezomib; first compound 8 µM
  relative viability: 0.51

## EPLC-272H
TGX 221 + Alpelisib; first compound 0.08 µM
  relative viability: 0.877
TGX 221 + Alpelisib; first compound 0.253 µM
  relative viability: 0.828
TGX 221 + Alpelisib; first compound 0.8 µM
  relative viability: 0.799
TGX 221 + Alpelisib; first compound 8 µM
  relative viability: 0.62
[1]; first compound 0.08 µM
  relative viability: 0.466
[1]; first compound 0.253 µM
  relative viability: 0.387
[1]; first compound 0.8 µM
  relative viability: 0.357
[1]; first compound 2.53 µM
  relative viability: 0.401
[1]; first compound 8 µM
  relative viability: 0.42
[2]; first compound 0.08 µM
  relative viability: 0.258
[2]; first compound 0.8 µM
  relative viability: 0.247
[2]; first compound 2.53 µM
  relative viability: 0.208
[2]; first compound 8 µM
  relative viability: 0.183
TGX 221 + Bortezomib; first compound 0.08 µM
  relative viability: 0.966
TGX 221 + Bortezomib; first compound 0.253 µM
  relative viability: 0.879
TGX 221 + Bortezomib; first compound 0.8 µM
  relative viability: 0.893
TGX 221 + Bortezomib; first compound 8 µM
  relative viability: 1

## H3255
TGX 221 + Alpelisib; first compound 0.08 µM
  relative viability: 0.568
TGX 221 + Alpelisib; first compound 0.253 µM
  relative viability: 0.581
TGX 221 + Alpelisib; first compound 0.8 µM
  relative viability: 0.534
TGX 221 + Alpelisib; first compound 2.53 µM
  relative viability: 0.448
TGX 221 + Alpelisib; first compound 8 µM
  relative viability: 0.378
[1]; first compound 0.08 µM
  relative viability: 0.823
[1]; first compound 0.253 µM
  relative viability: 0.863
[1]; first compound 2.53 µM
  relative viability: 0.886
[1]; first compound 8 µM
  relative viability: 0.784
[2]; first compound 0.08 µM
  relative viability: 0.898
[2]; first compound 0.253 µM
  relative viability: 1.07
[2]; first compound 0.8 µM
  relative viability: 0.757
[2]; first compound 2.53 µM
  relative viability: 0.9
[2]; first compound 8 µM
  relative viability: 0.848
TGX 221 + Bortezomib; first compound 0.08 µM
  relative viability: 0.685
TGX 221 + Bortezomib; first compound 0.253 µM
  relative viability: 0.732
TGX 221 + Bortezomib; first compound 0.8 µM
  relative viability: 0.792
TGX 221 + Bortezomib; first compound 2.53 µM
  relative viability: 0.776
TGX 221 + Bortezomib; first compound 8 µM
  relative viability: 0.708

## NCI-H650
TGX 221 + Alpelisib; first compound 0.08 µM
  relative viability: 1.23
TGX 221 + Alpelisib; first compound 0.253 µM
  relative viability: 1.02
TGX 221 + Alpelisib; first compound 0.8 µM
  relative viability: 1.13
TGX 221 + Alpelisib; first compound 2.53 µM
  relative viability: 0.912
TGX 221 + Alpelisib; first compound 8 µM
  relative viability: 0.791
[1]; first compound 0.08 µM
  relative viability: 0.412
[1]; first compound 0.253 µM
  relative viability: 0.438
[1]; first compound 0.8 µM
  relative viability: 0.422
[1]; first compound 2.53 µM
  relative viability: 0.426
[1]; first compound 8 µM
  relative viability: 0.309
[2]; first compound 0.08 µM
  relative viability: 0.911
[2]; first compound 0.253 µM
  relative viability: 1.04
[2]; first compound 0.8 µM
  relative viability: 1.17
[2]; first compound 2.53 µM
  relative viability: 1.02
[2]; first compound 8 µM
  relative viability: 0.817
TGX 221 + Bortezomib; first compound 0.08 µM
  relative viability: 0.697
TGX 221 + Bortezomib; first compound 0.253 µM
  relative viability: 0.748
TGX 221 + Bortezomib; first compound 0.8 µM
  relative viability: 0.721
TGX 221 + Bortezomib; first compound 2.53 µM
  relative viability: 0.639
TGX 221 + Bortezomib; first compound 8 µM
  relative viability: 0.791

## NCI-H23
TGX 221 + Alpelisib; first compound 0.08 µM
  relative viability: 0.66
TGX 221 + Alpelisib; first compound 0.253 µM
  relative viability: 0.572
TGX 221 + Alpelisib; first compound 0.8 µM
  relative viability: 0.471
TGX 221 + Alpelisib; first compound 2.53 µM
  relative viability: 0.606
TGX 221 + Alpelisib; first compound 8 µM
  relative viability: 0.574
[1]; first compound 0.08 µM
  relative viability: 0.541
[1]; first compound 0.253 µM
  relative viability: 0.559
[1]; first compound 0.8 µM
  relative viability: 0.572
[1]; first compound 2.53 µM
  relative viability: 0.525
[1]; first compound 8 µM
  relative viability: 0.242
[2]; first compound 0.08 µM
  relative viability: 0.232
[2]; first compound 0.253 µM
  relative viability: 0.168
[2]; first compound 0.8 µM
  relative viability: 0.239
[2]; first compound 2.53 µM
  relative viability: 0.229
[2]; first compound 8 µM
  relative viability: 0.229
TGX 221 + Bortezomib; first compound 0.08 µM
  relative viability: 0.861
TGX 221 + Bortezomib; first compound 0.253 µM
  relative viability: 1.21
TGX 221 + Bortezomib; first compound 0.8 µM
  relative viability: 1.11
TGX 221 + Bortezomib; first compound 2.53 µM
  relative viability: 1.03
TGX 221 + Bortezomib; first compound 8 µM
  relative viability: 0.963

## HCC-366
TGX 221 + Alpelisib; first compound 0.08 µM
  relative viability: 0.307
TGX 221 + Alpelisib; first compound 0.253 µM
  relative viability: 0.234
TGX 221 + Alpelisib; first compound 0.8 µM
  relative viability: 0.245
TGX 221 + Alpelisib; first compound 2.53 µM
  relative viability: 0.0984
TGX 221 + Alpelisib; first compound 8 µM
  relative viability: 0.127
[1]; first compound 0.253 µM
  relative viability: 0.35
[1]; first compound 0.8 µM
  relative viability: 0.348
[1]; first compound 2.53 µM
  relative viability: 0.309
[1]; first compound 8 µM
  relative viability: 0.315
[2]; first compound 0.253 µM
  relative viability: 0.342
[2]; first compound 0.8 µM
  relative viability: 0.259
[2]; first compound 2.53 µM
  relative viability: 0.281
[2]; first compound 8 µM
  relative viability: 0.273
TGX 221 + Bortezomib; first compound 0.08 µM
  relative viability: 0.863
TGX 221 + Bortezomib; first compound 0.253 µM
  relative viability: 1.03
TGX 221 + Bortezomib; first compound 0.8 µM
  relative viability: 1.12
TGX 221 + Bortezomib; first compound 2.53 µM
  relative viability: 0.99
TGX 221 + Bortezomib; first compound 8 µM
  relative viability: 1.09

## NCI-H2405
TGX 221 + Alpelisib; first compound 0.08 µM
  relative viability: 0.586
TGX 221 + Alpelisib; first compound 0.253 µM
  relative viability: 0.615
TGX 221 + Alpelisib; first compound 0.8 µM
  relative viability: 0.582
TGX 221 + Alpelisib; first compound 2.53 µM
  relative viability: 0.531
TGX 221 + Alpelisib; first compound 8 µM
  relative viability: 0.463
[1]; first compound 0.08 µM
  relative viability: 0.983
[1]; first compound 0.8 µM
  relative viability: 0.956
[1]; first compound 2.53 µM
  relative viability: 0.955
[1]; first compound 8 µM
  relative viability: 0.999
[2]; first compound 0.08 µM
  relative viability: 0.661
[2]; first compound 0.8 µM
  relative viability: 0.752
[2]; first compound 2.53 µM
  relative viability: 0.635
[2]; first compound 8 µM
  relative viability: 0.686
TGX 221 + Bortezomib; first compound 0.08 µM
  relative viability: 0.94
TGX 221 + Bortezomib; first compound 0.253 µM
  relative viability: 1.04
TGX 221 + Bortezomib; first compound 0.8 µM
  relative viability: 1.01
TGX 221 + Bortezomib; first compound 2.53 µM
  relative viability: 0.92
TGX 221 + Bortezomib; first compound 8 µM
  relative viability: 0.953

## NCI-H441
TGX 221 + Alpelisib; first compound 0.08 µM
  relative viability: 0.889
TGX 221 + Alpelisib; first compound 0.253 µM
  relative viability: 0.723
TGX 221 + Alpelisib; first compound 0.8 µM
  relative viability: 0.717
TGX 221 + Alpelisib; first compound 2.53 µM
  relative viability: 0.768
TGX 221 + Alpelisib; first compound 8 µM
  relative viability: 0.848
[1]; first compound 0.08 µM
  relative viability: 0.551
[1]; first compound 0.253 µM
  relative viability: 0.812
[1]; first compound 0.8 µM
  relative viability: 0.858
[1]; first compound 2.53 µM
  relative viability: 0.818
[1]; first compound 8 µM
  relative viability: 0.742
[2]; first compound 0.08 µM
  relative viability: 1.02
[2]; first compound 0.253 µM
  relative viability: 1.17
[2]; first compound 0.8 µM
  relative viability: 1.33
[2]; first compound 2.53 µM
  relative viability: 1.57
[2]; first compound 8 µM
  relative viability: 1.02
TGX 221 + Bortezomib; first compound 0.08 µM
  relative viability: 0.515
TGX 221 + Bortezomib; first compound 0.253 µM
  relative viability: 0.772
TGX 221 + Bortezomib; first compound 0.8 µM
  relative viability: 0.416
TGX 221 + Bortezomib; first compound 2.53 µM
  relative viability: 0.566
TGX 221 + Bortezomib; first compound 8 µM
  relative viability: 0.389

## NCI-H322M
TGX 221 + Alpelisib; first compound 0.08 µM
  relative viability: 0.8
TGX 221 + Alpelisib; first compound 0.253 µM
  relative viability: 0.64
TGX 221 + Alpelisib; first compound 0.8 µM
  relative viability: 0.64
TGX 221 + Alpelisib; first compound 2.53 µM
  relative viability: 0.687
TGX 221 + Alpelisib; first compound 8 µM
  relative viability: 0.505
[1]; first compound 0.08 µM
  relative viability: 0.841
[1]; first compound 0.253 µM
  relative viability: 0.756
[1]; first compound 0.8 µM
  relative viability: 0.817
[1]; first compound 2.53 µM
  relative viability: 0.865
[1]; first compound 8 µM
  relative viability: 0.855
[2]; first compound 0.08 µM
  relative viability: 0.599
[2]; first compound 0.253 µM
  relative viability: 0.6
[2]; first compound 0.8 µM
  relative viability: 0.522
[2]; first compound 2.53 µM
  relative viability: 0.639
[2]; first compound 8 µM
  relative viability: 0.64
TGX 221 + Bortezomib; first compound 0.08 µM
  relative viability: 1.15
TGX 221 + Bortezomib; first compound 0.253 µM
  relative viability: 1.09
TGX 221 + Bortezomib; first compound 0.8 µM
  relative viability: 1.15
TGX 221 + Bortezomib; first compound 2.53 µM
  relative viability: 1.18
TGX 221 + Bortezomib; first compound 8 µM
  relative viability: 1.11
